# Counter-ions that a name gives are not always drawn.
# Columns and labels:
# [1] = test system: Human Ewing's sarcoma cell line A673; assay: Proliferation of Ewing's sarcoma cells (MTT method), combination with VAC-2 regimen; format: cell-based; details: combined with 2 μg/mL vincristine, 75 μg/mL doxorubicin and 500 μg/mL cyclophosphamide
# Method: The test drugs were dissolved in dimethyl sulfoxide to prepare a 100 mmol/L mother solution, which was stored at −20° C. for later use. When in use, the mother solution was prepared with a DMEM serum culture medium to reach a required concentration; vincristine, doxorubicin and cyclophosphamide were mixed (VAC-2 regimen), and the dihydrochloride diluent of the compound of formula I was mixed with vincristine, doxorubicin and cyclophosphamide. […]
# The ICso value can be measured by a conventional method in the art (e.g., MTT method), or can be measured by the following method (MTT method):
# Cells in logarithmic growth phase were inoculated in a 96-well culture plate (180 μL/well, 10^5 cells/well); after 2 h of incubation at 37° C./5% CO2, the cells were added with the dihydrochloride of the compound of formula I (solutions at gradient concentrations of 0, 0.005, 0.1, 0.05, 0.1, 0.5, 1.5, 4, 12 and 30 μg/mL), 2 μg/mL vincristine, 75 μg/mL doxorubicin and 500 μg/mL cyclophosphamide, and the resulting mixtures were incubated. […] The next day, OD values were measured at 570 nm and 630 nm wavelengths using a microplate reader (SPECTRA max 190) (calculated by subtracting OD values measured at 630 nm (the control wavelength) from all OD values measured at 570 nm), and the cell growth inhibition rate was calculated according to the following equation: […]
# [2] = test system: human Ewing's sarcoma cells A673; assay: Effect on growth of Ewing's sarcoma, A673 subcutaneous xenograft in nude mice; format: in vivo, BALB/cA-nude mice; details: 6.25 mg/kg orally daily for 14 consecutive days; A673 subcutaneous tumors in nude mice
# Method: The dihydrochloride salt of the compound of formula I was dissolved in water to a concentration of 25 mg/mL and then further diluted with distilled water to a concentration of […].
# BALB/cA-nude mice, feeding environment: SPF grade. Nude mice were inoculated subcutaneously with human Ewing's sarcoma cells A673, and randomly grouped (d0) after tumors grew to 100-250 mm^3.
# The dihydrochloride of the compound of formula I (a dosage of 6.25 mg/kg) was orally administered daily to the animals in a volume of 10 mL/kg for 14 consecutive days. The tumor volume was measured 2-3 times per week, the mice were weighed, and the data was recorded.
# The equation for calculating tumor volume (V) is as follows: V=½×a×b^2, where a and b represent length and width, respectively.
# T/C (%)=(T-T0)/(C-C0)×100%, where T and C represent the tumor volumes of the administration group mice and the control group (i.e., solvent group) mice, respectively, at the end of the experiment; T0 and C0 represent the tumor volumes of administration group mice and the control group (i.e., solvent group) mice, respectively, at the time of grouping and administration (d0).
# The equation for calculating relative tumor volume (RTV) after administration is as follows: RTV=TV/TV0 (TV represents tumor volume at each measurement after administration, and TV0 represents tumor volume at the time of grouping and administration (d0)).
# Ewing's sarcoma patients = assay: Clinical trial of capsule combined with VAC-2 regimen in Ewing's sarcoma patients; format: in vivo, human; details: 12 mg capsule orally once daily, 2 weeks on/1 week off
# Method: A clinical trial was carried out in Ewing's sarcoma patients with measurable lesions (according to RECIST 1.1) for the combination of the dihydrochloride capsule of the compound of formula I and a second therapeutic agent (VAC-2 regimen). Patients in the patient group comprised patients who had previously received chemotherapy and those who had not. The patients were orally administered with 12 mg of the dihydrochloride capsule of the compound of formula I once daily (2 weeks of treatment and 1 week of interruption constitute one treatment cycle), and meanwhile the patients were treated with the VAC-2 regimen: intravenous infusion of 2 mg of vincristine on day 1, intravenous infusion of 75 mg/m^2 of doxorubicin on day 1, and intravenous infusion of 1200 mg/m^2 of cyclophosphamide on day 1 (28 days constitute one cycle). The evaluation endpoints included: efficacy endpoints, e.g., progression-free survival (PFS), objective response rate (ORR), duration of response (DOR), stable disease (SD) rate, clinical benefit rate (CBR), overall survival (OS), etc.; safety endpoints, e.g., incidence and severity of adverse events; and quality of life.
# [3] = test system: Human Ewing's sarcoma A673 cells; assay: Apoptosis of Ewing's sarcoma cells, Annexin-V-FITC/PI flow cytometry; format: cell-based; details: different concentrations (0-30 μg/mL) added to vincristine+doxorubicin+cyclophosphamide; 24 h
# Method: Human Ewing's sarcoma A673 cells in logarithmic growth phase were added at 10^5 cells/well to a DMEM complete culture medium containing 2 μg/mL vincristine, 75 μg/mL doxorubicin and 500 μg/mL cyclophosphamide, and to a DMEM complete culture medium containing the dihydrochloride of the compound of formula I (at concentrations of 0, 0.005, 0.1, 0.05, 0.1, 0.5, 1.5, 4, 12 and 30 μg/mL), 2 μg/mL vincristine, 75 μg/mL doxorubicin and 500 μg/mL cyclophosphamide. The resulting mixtures were incubated for 24 h, and then the cells were collected, centrifuged at 1000 r/min for 3-5 min, and washed with PBS. Then the apoptosis of the cells was detected using an Annexin-V-FITC/PI apoptosis detection kit. The cells were resuspended in 100 μL of 1×Binding buffer solution, and 5 μL of Annexin-V-FITC and 2.5 μL of PI dye were added. The mixture was shaken and mixed well in the absence of light, reacted for 15 min at room temperature, added with 300 μL of 1×Binding buffer solution, mixed well, and then subjected to detection by a flow cytometer. The test was repeated 3 times.
smiles,measurement,setting,value
COc1cc2c(Oc3ccc4[nH]c(C)cc4c3F)ccnc2cc1OCC1(N)CC1 [1-1-[[[4-(4-fluoro-2-methyl-1H-indol-5-yl)oxy-6-methoxyquinolin-7-yl]oxy]methyl]cyclopropylamine dihydrochloride],inhibition effect on proliferation of A673 cells,[1],definite inhibition effect
same,growth of Ewing's sarcoma,[2],significantly inhibit the growth of Ewing's sarcoma
same,overall survival,Ewing's sarcoma patients,can prolong overall survival
same,treatment of Ewing's sarcoma (efficacy),Ewing's sarcoma patients,effective for treatment of Ewing's sarcoma
same,apoptosis caused by the VAC-2 regimen,[3],remarkably enhance apoptosis
